Consider nine compounds from publication PMC5945515, “Measuring glucocorticoid receptor expression in vivo with PET” (Oncotarget, 2018).

Like-named read-outs stand apart in the source and are kept apart here.

One data set has as its target GR. The conditions noted are these: cited from earlier work.
For data set [1] the following is noted: cited from earlier work.
The next data set concerns the target T1, human GR (Homo sapiens, UniProt P04150).
T1 construct: PC3 and DU145, two human prostate cancer models with endogenous GR expression; endogenous in cells; host or cells: DU145
T1 sequence (P04150 1-777): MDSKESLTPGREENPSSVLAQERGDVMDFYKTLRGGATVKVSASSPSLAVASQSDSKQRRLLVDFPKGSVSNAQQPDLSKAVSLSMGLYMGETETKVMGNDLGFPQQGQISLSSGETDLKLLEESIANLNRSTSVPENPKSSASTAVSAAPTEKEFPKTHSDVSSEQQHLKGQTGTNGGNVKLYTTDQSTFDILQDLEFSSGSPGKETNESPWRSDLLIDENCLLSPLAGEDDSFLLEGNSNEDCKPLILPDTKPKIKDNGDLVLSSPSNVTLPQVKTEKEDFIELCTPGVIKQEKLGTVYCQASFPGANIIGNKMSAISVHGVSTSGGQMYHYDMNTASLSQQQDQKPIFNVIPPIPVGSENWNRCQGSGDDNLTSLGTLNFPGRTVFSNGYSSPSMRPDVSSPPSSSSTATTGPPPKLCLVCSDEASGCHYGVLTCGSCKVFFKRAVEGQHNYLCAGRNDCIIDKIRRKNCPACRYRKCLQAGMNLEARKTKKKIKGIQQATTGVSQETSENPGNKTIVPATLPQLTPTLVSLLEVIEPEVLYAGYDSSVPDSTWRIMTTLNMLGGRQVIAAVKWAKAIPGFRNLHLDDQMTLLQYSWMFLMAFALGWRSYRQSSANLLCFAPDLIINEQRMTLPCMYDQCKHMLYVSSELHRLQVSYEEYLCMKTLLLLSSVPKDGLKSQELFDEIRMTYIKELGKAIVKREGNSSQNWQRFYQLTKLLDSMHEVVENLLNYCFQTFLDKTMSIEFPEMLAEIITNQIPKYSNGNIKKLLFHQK
The data set is described as follows: Competition binding assay on cells, human GR. The conditions noted are these: Supplementary Table 1; read-out: KD for human GR. How it is done:
The KD for subfamily 3 group C nuclear hormone receptors was determined on cells by displacing ^3H-steroidal agonists for the respective receptor.
The cold ligands and ^3H-steroids were co-incubated on cells in PBS at room temperature for one hour. Following incubation, the cells were washed twice with ice cold PBS and the unbound activity was retained for analysis. The cells were lysed with 1 mL of 1 M NaOH and collected. Bound and unbound fractions were counted in a liquid scintillation counter and expressed as a percentage of the total activity added per equal relative number of cells. […] The specific binding component was plotted against the log of the competing ligand and curve fit using a non-linear regression algorithm with PRISM software.

Data set [2] can be described thus: PET/CT and biodistribution in tumor naive C57BL6/J mice. It is filed as in vivo, mouse.
A short description of data set [3]: Log P determination (octanol:water). It is filed as physicochemical. As to the method:
To a microcentrifuge tube containing 1 mL of octanol:water (1:1 v/v) was added 50 μL of ^18F-GR02 (total activity = 37 MBq). The solution was vortexed vigorously for 30 sec, and the biphasic layers were allowed to separate. The layers were manually pipetted into new microcentrifuge tubes, and the activity of each fraction was read with a dose calibrator. The water fraction contained 1.7 MBq, and the octanol fraction contained 35.3 MBq.

Data set [4] has as its system subrenal capsule PC3 tumors. The experiment in a line: Biodistribution in mice bearing subrenal capsule PC3 tumors. It is filed as in vivo, mouse. How it is done: (§1) All animal experiments were conducted with prior approval from IACUC at UCSF. Five to seven week old male nu/nu, intact or adx C57BL6/J mice were purchased from Charles River. Adx mice were provided drinking water supplemented with 0.9% NaCl (aq.). Male nu/nu mice received a subcutaneous bolus of 1 × 10^7 PC3 or DU145 cells in Matrigel and growth media (1:1 v/v) in the flank for tumor imaging studies with ^18F-GR02. For subrenal capsule tumor implants, 4–6 week old male Rag2 knockout mice (Taconic Farms) were placed under anesthesia with ∼2% isoflurane. A half centimeter dorsal midline incision was performed, and one kidney was gently pulled though the incision by applying pressure to the muscle wall. The kidney capsule was lifted from the parenchyma of the kidney, and PC3 cells (5 × 10^6 in 50 μL PBS) were injected into the pocket under the capsule. The kidney was placed back and the skin incision was closed using 3 surgical sutures. The mice were treated once with Carprofen (5–10 mg/kg) to ease recovery. Mice were observed over 24 hours for signs of post-operative pain, bleeding and/or other complications. Tumor progression was followed for 7–14 days after surgery with a 14 T Agilent small animal MRI to identify tumors of suitable size to conduct the biodistribution study.
(§2) At dedicated time points post injection, mice were humanely euthanized with CO2 (g) asphyxiation and blood and tissues were removed, washed, dried and weighed. The activity associated with each tissue was measured with a gamma counter. The data was decay corrected and expressed as a percentage of the injected dose per gram of tissue with PRISM software.

In data set [5] the test system is subcutaneous DU145 tumors. The data set is described as follows: Biodistribution in mice bearing subcutaneous DU145 tumors. The conditions noted are these: one hour post injection. It is filed as in vivo, mouse. How it is done:
as §1, with “The kidney was placed back and the skin incision was closed using 3 surgical sutures. The mice were treated once with Carprofen (5–10 mg/kg) to ease recovery. Mice were observed over 24 hours for signs of post-operative pain, bleeding and/or other complications. Tumor progression was followed for 7–14 days after surgery with a 14 T Agilent small animal MRI to identify tumors of suitable size to conduct the biodistribution study.” left out
(§3) All radiotracers were administered via tail vein injection in < 300 μL PBS. […] All imaging data was reconstructed, decay corrected, and analyzed with AMIDE or ASIPro software. […]
as §2

Data set [6] can be described thus: PET/CT and biodistribution in tumor naive C57BL6/J mice. It is filed as in vivo, mouse. How it is done: All radiotracers were administered via tail vein injection in < 300 μL PBS. Intact male C57BL6/J or nu/nu mice were treated with vehicle or mife. (25 mg/kg) via oral gavage for four days prior to injection with ∼11 MBq of ^18F-GR02. Mice were anesthetized and imaged with a Siemens Inveon small animal PET/CT at dedicated time points post injection. Each mouse was imaged until 20 million coincident events were collected. All imaging data was reconstructed, decay corrected, and analyzed with AMIDE or ASIPro software. Maximum intensity projections were generated with ASIPro software. ASIPro software was also used to draw manual two dimensional regions of interest to calculate SUV data for static or dynamic acquisitions.
as §2
This is another data set of the same source.

The subject of another data set is subcutaneous PC3 tumors. The experiment in a line: Biodistribution in mice bearing subcutaneous PC3 tumors. It is filed as in vivo, mouse. Conditions: one hour post injection. How it is done: as §1, with “The kidney was placed back and the skin incision was closed using 3 surgical sutures. The mice were treated once with Carprofen (5–10 mg/kg) to ease recovery. Mice were observed over 24 hours for signs of post-operative pain, bleeding and/or other complications. Tumor progression was followed for 7–14 days after surgery with a 14 T Agilent small animal MRI to identify tumors of suitable size to conduct the biodistribution study.” left out
as §3, §2

Where [7] appears, read: mouse adrenalectomized, 60 minutes post injection.
The mark [8] stands for this setting: mouse intact, 60 minutes post injection.
Where [9] appears, read: octanol:water 1:1, total activity 37 MBq.
Where [10] appears, read: intact male nu/nu mice, vehicle.

A word on the Kd: it is the constant that tells how readily two partners part at equilibrium. In the case of `CC1(C)O[C@@H]2C[C@H]3[C@@H]4CCC5=CC(=O)C=C[C@]5(C)[C@@]4(F)[C@@H](O)C[C@]3(C)[C@]2(C(=O)CF)O1` [21-[18F]-deoxytriamcinolone acetonide], the Kd at GR (ref PMID 1526811) is 2.1 nM.

`CC12C=CC(=O)C=C1CCC1C2C(=O)CC2(C)C1CCC2(O)C(=O)C[18F]` (stereo not drawn) [21-[18F]-prednisone]: the logP o/w in [1] (ref PMID 3495649) was 2.1.

As to `C=CCC1Oc2cccc(OC)c2-c2ccc3c(c21)C(C)=CC(C)(C)N3` (stereo not drawn) [[11 C]-Al-438], the Kd at GR (ref PMID 17499506) is 8.1 nM.

`C=CCC1Oc2cccc(O[11CH3])c2-c2ccc3c(c21)C(C)=CC(C)(C)N3` (stereo not drawn) [[11 C]-Al-438]: the logP o/w in [1] (ref PMID 17499506) is recorded as 6.13.

With `CC12C=CC(=O)C=C1CCC1C2C(O)CC2(C)C1CCC2(O)C(=O)COCCCF` (stereo not drawn) [^18F-GR01], at human GR, the Kd is 3.8 nM.

Take `CC12C=CC(=O)C=C1CCC1C2C(O)CC2(C)C1CCC2(O)C(=O)COCCC[18F]` (stereo not drawn) [^18F-GR01]: the bone associated activity in [2] (intact male C57BL6/J mice, 60 minutes post injection) was around 20 % ID/g.

In the case of `CC12C=CC(=O)C=C1CCC1C2C(O)CC2(C)C1CCC2(O)C(=O)CNC(=O)c1ccc(F)cc1` (stereo not drawn) [^18F-GR02], the dissociation constant (Kd) at human GR stood at 15.9 nM.

Consider `CC12C=CC(=O)C=C1CCC1C2C(O)CC2(C)C1CCC2(O)C(=O)CNC(=O)c1ccc([18F])cc1` (stereo not drawn) [^18F-GR02], for which the “uptake in the brain across the treatment arms” value in data set [2] (C57BL6/J mice, intact/adx, vehicle/mife., 60 min post injection) is 0.05–0.2 % ID/g. In data set [2] (setting [7]), this compound returned a Blood of 2.36 ± 1.6 % ID/g, a Bone of 1.25 ± 0.8 % ID/g, a Brain of 0.17 ± 0.05 % ID/g and a Heart of 2.39 ± 0.6 % ID/g. In data set [2] (setting [7]), the Kidney is listed as 13.42 ± 3.1 % ID/g, the Liver stood at 21.83 ± 3.3 % ID/g, the Lung was found to be 2.15 ± 1.0 % ID/g and the Muscle stood at 1.15 ± 0.4 % ID/g. Moreover, in [2] (setting [7]), the Spleen turned out to be 1.41 ± 0.6 % ID/g and the Stomach was 5.54 ± 2.4 % ID/g. Further, in [2] (setting [8]), the Blood was 0.83 ± 0.3 % ID/g, the Kidney is reported as 3.96 ± 1.9 % ID/g, the Liver amounted to 7.98 ± 1.5 % ID/g and the Muscle was found to be 0.36 ± 0.3 % ID/g. In addition, in [2] (setting [8]), the Stomach was determined as 0.62 ± 0.1 % ID/g. Besides, the “time of peak accumulation in the liver post injection” value in [2] (one hour dynamic PET scan, intact male C57BL6/J mouse) is at most 10 min. For the same compound, in data set [3] (setting [9]), the “activity in the octanol fraction” value is 35.3 MBq and the “activity in the water fraction” value stood at 1.7 MBq. For the same compound, the “log P (o/w)” value in [3] (octanol:water 1:1 v/v) is 1.33. In data set [4] (mouse, in vivo, sc), the “fold higher uptake in renal capsule tumor vs subcutaneous PC3 tumor” value is around 16 fold. Moreover, the “uptake in renal capsule PC3 tumor after mife.” value in data set [4] (pretreatment with mife. 25 mg/kg, 60 minutes post injection) came to 2.84 ± 1.8 % ID/g. In addition, in data set [4] (vehicle, 60 minutes post injection), the “uptake in renal capsule PC3 tumor” value worked out at 6.24 ± 1.0 % ID/g. Moreover, the “uptake in subcutaneous DU145 tumors after mife.” value in [5] (four days prior mife. 25 mg/kg) was found to be 0.23 ± 0.09 % ID/g. For the same compound, the “uptake in subcutaneous DU145 tumors” value in [5] (setting [10]) is 0.45 ± 0.2 % ID/g. Moreover, the “fold higher specific binding in liver vs prior GR-targeted radiotracers” value in [6] (compared with literature data of Supplementary Table 2) is listed as 3–10 fold. In [6] (setting [8]), this compound came in with a Bone of 0.28 ± 0.1 % ID/g, a Brain of 0.06 ± 0.02 % ID/g, a Heart of 0.81 ± 0.5 % ID/g and a Lung of 0.64 ± 0.4 % ID/g. Also, the Spleen in data set [6] (setting [8]) was 0.63 ± 0.1 % ID/g. Also, the “uptake in subcutaneous PC3 tumors after mife.” value with subcutaneous PC3 tumors (four days prior mife. 25 mg/kg) is 0.18 ± 0.07 % ID/g. Also, the “uptake in subcutaneous PC3 tumors” value with subcutaneous PC3 tumors (setting [10]) came to 0.37 ± 0.1 % ID/g.

As to `CC#C[C@]1(O)CC[C@H]2[C@@H]3CCC4=CC(=O)CCC4=C3[C@@H](c3ccc(N(C)C)cc3)C[C@@]21C` [mife., mifepristone, reference compound], the “effect on 18F-GR02 uptake in several tissues, including liver, kidney and stomach” value in data set [2] (adx C57BL6/J mice, mife. pretreatment) was “suppressed ^18F-GR02 uptake to a statistically significant extent”. Also, the “effect on 18F-GR02 uptake in liver, spleen, small intestine and stomach” value in data set [6] (intact C57BL6/J mice, 25 mg/kg daily oral gavage for four days, one hour post injection) is listed as “statistically significant suppression”.
